In patent publication US20250065017A1, “Fractionating Extracellular Matrix to Modulate Bioactivity and the Host Response” (University of Pittsburgh - Of the Commonwealth System of …, priority 2014, published 2025):

Test system: Sprague Dawley rats
Test: Rat skeletal muscle injury model: macrophage phenotype immunolabeling
Assay type: in vivo
Experimental: An established rodent skeletal muscle injury model was used to evaluate the effect of the COX1/2 inhibitor, Aspirin, on the ECM scaffold mediated constructive remodeling response. Briefly, three days prior to the surgical procedure, animals were randomly assigned to either the Aspirin treated (3 mg/mL Aspirin in drinking water) or control (vehicle) group. Bilateral 1.5 cm×1.5 cm partial thickness defects were created in the abdominal musculature. A size-matched pre-cast UBM hydrogel and an overlying 2×2 cm single layer sheet of UBM was then placed in the muscle defect area. The remodeling response was evaluated following 3, 7, 14, and 35 days by quantitative histomorphologic metrics (Wolf M T, Carruthers […], Crapo P M, Huber A, Burnsed O A, Londono R, Johnson […] and others. Polypropylene surgical mesh coated with extracellular matrix mitigates the host foreign body response. J Biomed Mater Res A 2013 and Wolf […], Brennan-Pierce E P, Johnson S A, Carruthers […] hydrogel derived from decellularized dermal extracellular matrix. Biomaterials 2012;33(29):7028-38), including characterization of macrophage phenotype and neo tissue deposition. Thirty-two female Sprague Dawley rats (350-400 g at implantation) were purchased from Harlan Laboratories. Rats were housed on a 12 hour light-dark cycle and fed standard laboratory chow and water ad libitum. Animals were randomly assigned to either the Aspirin treated or control (vehicle) group. Three days prior to surgery, animals in the Aspirin group had their drinking water supplemented with 3 mg/mL Aspirin which was continued throughout the experimental time course. […] Salicylates in whole blood were determined using the Salicylates Detection Kit from Neogen according to the manufacturer's instructions. […] CD206 and CD86: Cellular expression of markers of macrophage polarization (CD206 and CD86) were determined by immunolabeling using previously described methods ([…], Londono […], Carruthers […]. Preparation and characterization of a biologic scaffold from esophageal mucosa. Biomaterials 2013;34(28):6729-37). […]

[1] = vs non-Aspirin treated animals throughout the time course

## CC(=O)Oc1ccccc1C(=O)O [Aspirin]
Main effect for treatment, UBM implant
  M2:M1 ratio (CD68+CD206+ to CD68+CD86+ cells): reduction in the M2:M1 ratio
[1]
  M1 (CD86+) macrophages: increase in M1 (CD86+) macrophages
  M2 (CD206+) macrophages: reduction in M2 (CD206+)
